Measurements as given in the NIST ThermoML archive (doi:10.1016/j.tca.2016.02.005).

What was measured:
[1] = xn = mol fraction of the nth substance listed; conditions: 101.3 kPa, Liquid; for speed of sound: Frequency=3 MHz, Sing-around technique in a fixed-path interferometer; for mass density: Vibrating tube method
[2] = refractive index (Na D-line) (dimensionless); xn = mol fraction of the nth substance listed; conditions: 101.3 kPa, Liquid, Standard Abbe refractometry

COCCO [2-methoxyethan-1-ol] + CCn1cc[n+](C)c1.F[B-](F)(F)F
Conditions | mass density, [1] [kg/m3] | refractive index, [2] | speed of sound, [1] [m/s]
298.15 K, x2 = 0 | 960.9 | 1.4003 | 1345.8
298.15 K, x2 = 0.0515 | 993.6 | 1.4031 | 1379.1
298.15 K, x2 = 0.102 | 1022 | 1.4052 | 1408.5
298.15 K, x2 = 0.1502 | 1046.9 | 1.4067 | 1433.7
298.15 K, x2 = 0.21 | 1075 | 1.408 | 1461.4
298.15 K, x2 = 0.3051 | 1113.8 | 1.4094 | 1498.3
298.15 K, x2 = 0.3976 | 1145.5 | 1.4101 | 1526.8
298.15 K, x2 = 0.5036 | 1175.9 | 1.4107 | 1552.1
298.15 K, x2 = 0.6063 | 1200.7 | 1.4111 | 1570.9
298.15 K, x2 = 0.701 | 1220.6 | 1.4115 | 1584.8
298.15 K, x2 = 0.8024 | 1240.1 | 1.4118 | 1597.7
298.15 K, x2 = 0.8521 | 1249.4 | 1.4117 | 1603.7
298.15 K, x2 = 0.9 | 1258.3 | 1.4115 | 1609.6
298.15 K, x2 = 0.9502 | 1267.8 | 1.4111 | 1616
308.15 K, x2 = 0 | 951.7 | 1.3961 | 1311.3
308.15 K, x2 = 0.0515 | 984.6 | 1.3991 | 1345.9
308.15 K, x2 = 0.102 | 1013.2 | 1.4014 | 1376.4
308.15 K, x2 = 0.1502 | 1038.3 | 1.4031 | 1402.7
308.15 K, x2 = 0.21 | 1066.5 | 1.4046 | 1431.6
308.15 K, x2 = 0.3051 | 1105.5 | 1.4061 | 1470
308.15 K, x2 = 0.3976 | 1137.4 | 1.407 | 1499.7
308.15 K, x2 = 0.5036 | 1168 | 1.4077 | 1526.1
308.15 K, x2 = 0.6063 | 1192.9 | 1.4082 | 1545.8
308.15 K, x2 = 0.701 | 1212.9 | 1.4087 | 1560.3
308.15 K, x2 = 0.8024 | 1232.4 | 1.4091 | 1573.6
308.15 K, x2 = 0.8521 | 1241.7 | 1.4091 | 1579.8
308.15 K, x2 = 0.9 | 1250.6 | 1.4089 | 1585.9
308.15 K, x2 = 0.9502 | 1260.2 | 1.4085 | 1592.5
318.15 K, x2 = 0 | 942.7 | 1.3917 | 1276.4
318.15 K, x2 = 0.0515 | 975.9 | 1.3951 | 1312.3
318.15 K, x2 = 0.102 | 1004.7 | 1.3977 | 1344.1
318.15 K, x2 = 0.1502 | 1030 | 1.3996 | 1371.4
318.15 K, x2 = 0.21 | 1058.5 | 1.4013 | 1401.5
318.15 K, x2 = 0.3051 | 1097.9 | 1.403 | 1441.5
318.15 K, x2 = 0.3976 | 1130.1 | 1.4039 | 1472.5
318.15 K, x2 = 0.5036 | 1160.8 | 1.4047 | 1500.1
318.15 K, x2 = 0.6063 | 1185.8 | 1.4053 | 1520.6
318.15 K, x2 = 0.701 | 1205.8 | 1.406 | 1535.7
318.15 K, x2 = 0.8024 | 1225.2 | 1.4064 | 1549.6
318.15 K, x2 = 0.8521 | 1234.4 | 1.4065 | 1556.1
318.15 K, x2 = 0.9 | 1243.2 | 1.4064 | 1562.4
318.15 K, x2 = 0.9502 | 1252.5 | 1.4059 | 1569.2
328.15 K, x2 = 0 | 933.4 | 1.3876 | 1241.9
328.15 K, x2 = 0.0515 | 966.8 | 1.3914 | 1279.2
328.15 K, x2 = 0.102 | 995.8 | 1.3943 | 1312.1
328.15 K, x2 = 0.1502 | 1021.3 | 1.3965 | 1340.5
328.15 K, x2 = 0.21 | 1050 | 1.3983 | 1371.7
328.15 K, x2 = 0.3051 | 1089.6 | 1.4002 | 1413.4
328.15 K, x2 = 0.3976 | 1122 | 1.4011 | 1445.7
328.15 K, x2 = 0.5036 | 1152.9 | 1.4018 | 1474.5
328.15 K, x2 = 0.6063 | 1178 | 1.4024 | 1495.9
328.15 K, x2 = 0.701 | 1198.1 | 1.403 | 1511.7
328.15 K, x2 = 0.8024 | 1217.6 | 1.4035 | 1526.2
328.15 K, x2 = 0.8521 | 1226.8 | 1.4036 | 1532.9
328.15 K, x2 = 0.9 | 1235.6 | 1.4035 | 1539.4
328.15 K, x2 = 0.9502 | 1245 | 1.4031 | 1546.4
